Patent publication US8623897B2, “Methods and compositions for treatment of diabetes and dyslipidemia” (Kareus Therapeutics, SA, priority 2010, dated 2014)

How the values were obtained:
[1] = test system: obese diabetic C57BLKS db/db mice; experiment: In vivo efficacy in diabetic db/db mice (plasma glucose, triglycerides, HOMA index); design: species or system mouse; conditions: male db/db mice, after 1-2 weeks of treatment; for Plasma glucose (% change compared to vehicle) / Plasma Triglycerides (% change compared to vehicle): 6 h fast; for Insulin resistance HOMA index (% change compared to vehicle): HOMA = I0×G0/405
Description: Male obese diabetic C57BLKS db/db mice (6 weeks old) were procured from the Jackson Laboratory (Bar Harbor, Me.) and were maintained on LabDiet 5K52 ad libitum with access to water. Animals were kept in a temperature-controlled room on a 12:12-h light-dark cycle. Experiments were performed on 6-9 week old mice.
Blood samples were collected after a 6 h fast on day 0 (baseline) and at the end week 1 and week 2 (day 7 and day 14) for analysis of glucose, triglycerides, total cholesterol, insulin and free fatty acid levels. Body weight and feed intake was measured twice weekly. Before initiation of the treatment, the animals were randomized based on plasma glucose levels into treatment groups (n=8 per group). The animals were administered the test compounds in 0.5% carboxymethylcellulose in water at the mentioned doses for two weeks by oral gavage. The control animals received the vehicle (0.5% carboxymethylcellulose in water) alone. Compound administration was continued till day 16.
Plasma glucose (PG) and triglycerides (TG) were measured spectrophotometrically in a microplate reader using reagent kits (Labkit, Merck) according to the manufacturer's instructions. Plasma insulin was measured by ELISA using a Rat/Mouse kit from Millipore (Cat. No. EZRMI-13K).
The percentage reduction was calculated according to the following formula
[formula] Statistical analysis was carried out by one way ANOVA followed by Dunnett's test using GraphPad Prism.
Determination of Homeostatic model assessment of insulin resistance (HOMA)—The HOMA index for insulin resistance was calculated using the formula— I0×G0/405 Where I0 is the fasting insulin (μU/ml), G0 is the fasting glucose in mg/dL. A factor of 6.945 was used for the conversion of insulin pmol/L to μlU/L).
The table below summarizes the effect on plasma glucose, triglycerides, and insulin resistance after 1-2 weeks of treatment with representative compounds of Formula I. Example numbers denote the products of examples given above. The data presented in the table is representative and should not be read as limiting the invention to the specific examples listed in the Table.

SMILES	melting point [°C]	further results
O=C(O)C1(CCCCCCCCCCCCC2(C(=O)O)CC2)CC1 [Example 1, 2,15-Dicycloproryl-hexadecanedioic acid]	–	Plasma glucose (% change compared to vehicle) ([1]; 10 mg/kg oral gavage): −52%; Insulin resistance HOMA index (% change compared to vehicle) ([1]; 10 mg/kg oral gavage): −65%
COCC1(CCCCCCCCCCCCC2(C(=O)O)CC2)CC1 [Example 15, 1-[12-(1-Methoxymethyl-cyclopropyl)-dodecyl]-cyclopropanecarboxylic acid]	36.4 to 37.6	Plasma Triglycerides (% change compared to vehicle) ([1]; 15 mg/kg oral gavage): −35%; Plasma glucose (% change compared to vehicle) ([1]; 15 mg/kg oral gavage): −56%; Insulin resistance HOMA index (% change compared to vehicle) ([1]; 15 mg/kg oral gavage): −92%
O=C(O)CC1(CCCCCCCCCCC2(C(=O)O)CC2)CC1 [Example 23, 1-[10-(1-Carboxymethyl-cyclopropyl)-decyl]-cyclopropanecarboxylic acid]	71.9 to 74.3	–
O=C(O)CC1(CCCCCCCCCCC2(CC(=O)O)CC2)CC1 [Example 4, {1-[10-(1-carboxymethyl-cyclopropyl)-decyl]-cyclopropyl}-acetic acid]	–	Plasma Triglycerides (% change compared to vehicle) ([1]; 50 mg/kg oral gavage): −51%; Insulin resistance HOMA index (% change compared to vehicle) ([1]; 50 mg/kg oral gavage): −54%
N#CC1(CCCCCCCCCCCCC2(C(=O)O)CC2)CC1	44.4 to 46.9	–
CCOC(=O)C1(CCCCCCCCCCCCC2(C(=O)OCC)CC2)CC1 [Example 10, 2,15-Dicyclopropyl-hexadecanedoic acid diethyl ester]	–	Plasma Triglycerides (% change compared to vehicle) ([1]; 15 mg/kg oral gavage): −23%; Plasma glucose (% change compared to vehicle) ([1]; 15 mg/kg oral gavage): −51%
O=C(O)CC1(CCCCCCCCCCCC2(C(=O)O)CC2)CC1 [Example 30, 1-[11-(1-Carboxymethyl-cyclopropyl)-undecyl]-cyclopropanecarboxylic acid]	75.3 to 78.9	–
NC(=O)C1(CCCCCCCCCCCCC2(C(=O)O)CC2)CC1 [Example 12]	116.6 to 118.1	Plasma Triglycerides (% change compared to vehicle) ([1]; 20 mg/kg oral gavage): −28%; Plasma glucose (% change compared to vehicle) ([1]; 20 mg/kg oral gavage): −55%; Insulin resistance HOMA index (% change compared to vehicle) ([1]; 20 mg/kg oral gavage): −89%
CC(C)(CCCCCCCCCCCCC1(C(=O)O)CC1)C(=O)O	85.6 to 86.7	–
O=C(O)C1(CCCCCCCCCCCCC2(C(=O)NC3CC3)CC2)CC1 [Example 35, 1-[12-(1-Cyclopropylcarbamoyl-cyclopropyl)-dodecyl]-cyclopropane carboxylic acid]	95.3 to 97.7	Plasma glucose (% change compared to vehicle) ([1]; 15 mg/kg oral gavage): −30%
COC(=O)C1(CCCCCCCCCCCCC2(C(=O)NC3CC3)CC2)CC1 [Example 34, 1-[12-(1-cyclopropylcarbamoyl-cyclopropyl)-dodecyl]-cyclopropane-carboxylic acid methyl ester]	50.6 to 53	–
N#CC1(CCCCCCCCCCCCC2(C#N)CC2)CC1	45 to 46.9	–

Continued, in another order:

melting point [°C]	SMILES	further results
97.5 to 99.4	CS(=O)(=O)NC(=O)C1(CCCCCCCCCCCCC2(C(=O)O)CC2)CC1 [Example 37, 1-[12-(1-Methanesulfonylaminocarbonyl-cyclopropyl)-dodecyl]-cyclopropanecarboxylic acid]	Plasma glucose (% change compared to vehicle) ([1]; 15 mg/kg oral gavage): −59%
53.5 to 54.5	COC(=O)C1(CCCCCCCCCCCCC2(C(=O)NS(C)(=O)=O)CC2)CC1 [Example 36, 1-[12-(1-Methanesulfonylaminocarbonyl-cyclopropyl)-dodecyl]-cyclopropanecarboxylic acid methyl ester]	–
54 to 54.8	O=C(O)C1(CCCCCCCCCCCCC2(C(F)F)CC2)CC1 [Example 39, 1-[12-(1-Difluoromethyl-cyclopropyl)-dodecyl]-cyclopropanecarboxylic acid]	–
81.1 to 83.8	O=C(O)C1(CCCCCCCCCCCCC2(C(=O)NCCO)CC2)CC1 [Example 42, 1-{12-[1-(2-hydroxy-ethylcarbamoyl)-cyclopropyl]-dodecyl}-cyclopropane carboxylic acid]	–
112.5 to 113.5	O=C(NCCO)C1(CCCCCCCCCCCCC2(C(=O)NCCO)CC2)CC1 [Example 40, 1,1′-dodecane-1,12-diylbis[N-(2-hydroxyethyl)cyclopropanecarboxamide]]	–
